Data taken from patent US8822506B2, “Use of succinate dehydrogenase inhibitors for controlling powdery mildew primary infections” (Bayer Cropscience AG, priority 2009, dated 2014).

How the values were obtained:
Assay type in all cases: in vivo, Podosphera leucotricha
[1] = tested on: Powdery mildew; assay: Apple orchard field trial, powdery mildew primary infection of shoots in the following year, assessed 345 days after application 8; conditions: apples, 8 applications; for 345DAT8 [% infested shoots]: 345 days after application 8, no other application, untreated 45.2; for 345DAT8 [% efficacy] (Abbott): 345 days after application 8, infested shoots
Description: (§1) Fluopyram was tested in apples orchard in comparison with already know fungicides active against Powdery mildew such as triadimenol (Bayleton) and boscalid.
(§2) Fluopyram was applied at range of rates: 18.5 g-25 g-37.5-50 g a.s./ha/meter canopy height (g ha/m c.h.). Bayleton was applied at 25 g a.s./ha/m c.h. Boscalid (Cantus WG50) was applied at 125 g a.s./m c.h.
(§3) During the spray season, the compounds were applied at apple susceptible stages from BBCH09 (green leaf tips 5 mm above bud scales to BBCH73 Fruit size between 20 and 40 mm (as described in BBCH Monograph, 2. Edition, 2001, edited by Uwe Meier, Federal Biological Research Centre for Agriculture and Forestry) in order to protect leaves, buds and shoots against Powdery mildew. The compounds have been applied eight times with an interval of ten days during spray season.
(§4) The type of assessments of infections was: • % infested area on leaves (severity) and % infested leaves (incidence) were assessed 10 days after application 8 (10DAT8). • Count and % infested shoots (primary infection) were assessed 345 days after application 8 (345 DAT8). Results

[2] = tested on: Powdery mildew; assay: Apple orchard field trial, powdery mildew secondary infections on leaves (incidence), assessed 10 days after application 8; conditions: for 10DAT8 [% infested leaves] / 10DAT8 [% efficacy] (Abbott): apples, 10 days after application 8; for 10DAT8 [% infested leaves]: 8 applications at 10-day interval, untreated 96; for 10DAT8 [% efficacy] (Abbott): 8 applications, infested leaves
Description: as §1, §2, §3, §4

[3] = tested on: Powdery mildew; assay: Apple orchard field trial, powdery mildew primary infection of shoots in the following year, assessed 345 days after application 8; conditions: proximate year (assessment 345DAT8), without any other application; dose rate relation, 18.5 to 50 g a.s./m c.h.

## O=C(NCCc1ncc(C(F)(F)F)cc1Cl)c1ccccc1C(F)(F)F [Fluopyram, N-{2-[3-chloro-5-(trifluoromethyl)-2-pyridinyl]ethyl}-2-(trifluoromethyl)benzamide]
[1]; 18.5 g a.s./ha/m c.h.
  345DAT8 [% infested shoots]: 17.7%
  345DAT8 [% efficacy] (Abbott): 60.9%
[1]; 25 g a.s./ha/m c.h.
  345DAT8 [% infested shoots]: 14%
  345DAT8 [% efficacy] (Abbott): 69%
[1]; 37.5 g a.s./ha/m c.h.
  345DAT8 [% infested shoots]: 13%
  345DAT8 [% efficacy] (Abbott): 71.2%
[1]; 50 g a.s./ha/m c.h.
  345DAT8 [% infested shoots]: 9%
  345DAT8 [% efficacy] (Abbott): 80.1%
[2]; 18.5 g a.s./ha/m c.h.
  10DAT8 [% infested leaves]: 8.7%
  10DAT8 [% efficacy] (Abbott): 91%
[2]; 25 g a.s./ha/m c.h.
  10DAT8 [% infested leaves]: 10%
  10DAT8 [% efficacy] (Abbott): 89.6%
[2]; 37.5 g a.s./ha/m c.h.
  10DAT8 [% infested leaves]: 2.7%
  10DAT8 [% efficacy] (Abbott): 97.2%
[2]; 50 g a.s./ha/m c.h.
  10DAT8 [% infested leaves]: 0.7%
  10DAT8 [% efficacy] (Abbott): 99.3%
[2]; assessment 10DAT8, 18.5 g to 50 g a.s./m c.h., visible dose rate effect, superior to triadimenol and boscalid from the lowest rate
  efficacy against powdery mildew on apples against secondary infections (in words): excellent efficacy
[3]
  level of infection measured by the % of primary infested shoots (in words): high decrease of infestation

## O=C(Nc1ccccc1-c1ccc(Cl)cc1)c1cccnc1Cl [Boscalid, 2-chloro-N-(4′-chlorobiphenyl-2-yl)nicotinamide]
[1]; 125 g a.s./ha/m c.h.
  345DAT8 [% infested shoots]: 30.8%
  345DAT8 [% efficacy] (Abbott): 31.7%
[2]; 125 g a.s./ha/m c.h.
  10DAT8 [% infested leaves]: 46%
  10DAT8 [% efficacy] (Abbott): 52.1%

## CC(C)(C)C(O)C(Oc1ccc(Cl)cc1)n1cncn1 (centres unmarked) [Triadimenol]
[1]; 25 g a.s./ha/m c.h.
  345DAT8 [% infested shoots]: 27.5%
  345DAT8 [% efficacy] (Abbott): 39.1%
[2]; 25 g a.s./ha/m c.h.
  10DAT8 [% infested leaves]: 32%
  10DAT8 [% efficacy] (Abbott): 66.7%
